Measured values as given in paper PMC7074166, “Screening for Small Molecule Modulators of Trypanosoma brucei Hsp70 Chaperone Activity Based upon Alcyonarian Coral-Derived Natural Products” (Marine Drugs, 2020).
Read-outs that look alike come from different tables or passages of the source.

How the values were obtained:
[1] = Resazurin-based cytotoxicity assay on a mammalian cell line; set-up: species or system human; settings: human; HeLa cells, 10 μM
Experimental: (§1) HeLa cells were grown and maintained in a culture medium comprised of Dulbecco’s Modified Eagle’s Medium (DMEM) with 5 mM L-glutamine (Lonza, Basel, Switzerland), supplemented with 10% (v/v) heat inactivated foetal bovine serum and antibiotics (penicillin/streptomycin/fungizone-PSF) in a humidified chamber at 37 °C with an atmosphere of 5% CO2. To carry out passaging of cells, cultures were treated with 1% trypsin (w/v) to lift cells, which were then washed in 1 × phosphate buffered saline (PBS) before being re-seeded into culture flasks. For assessment of the cytotoxic effects, the small molecules were added to HeLa cells at a fixed concentration of 20 μM. After an incubation period of 24 h, the number of cells surviving drug exposure were determined using a resazurin-based cytotoxicity assay. The resazurin-based cytotoxicity assay was conducted as previously mentioned. Results were expressed as % cell—the resorufin fluorescence in small molecule-treated wells relative to untreated controls. Assessment of each small molecule was conducted in duplicate, with error bars representing standard deviation (SD).

TbHsp70 = target: T1, TbHsp70 (Trypanosoma brucei brucei, UniProt P11145); assay: Basal ATPase activity assay, TbHsp70; format: biochemical
T1 construct: His-tag; made in house; host or cells: Escherichia coli
Experimental: (§2) The determination of the ATPase activity of the Hsp70 proteins was performed using the high throughput colorimetric ATPase assay kit (Innova Biosciences, Cambridge, UK). This method enables the quantification of the inorganic phosphate (Pi) released from ATP hydrolysis by an enzyme. Briefly, the molecular chaperones were prepared in ATPase assay buffer (100 mM Tris-HCl, 7.5, 2 mM MgCl2, 50 mM KCl, 0.5 mM DTT) and incubated with ATP (0–2 mM) for 1 h at 37 °C. […] The samples containing Pi hydrolysed from ATP were incubated with the PiColorLock™ solution, which is a malachite green dye solution that in the presence of Pi changes absorbance due to generation of molybdate-phosphate complexes. The absorbance was measured at 595 nm using a Powerwave 96-well plate reader (BioTek Instruments, Inc., Winooski, VT, USA), and absorbance values were converted to phosphate concentrations using a standard curve of absorbance vs. phosphate concentration based on a set of Pi standards provided by the supplier assayed along with the samples. All samples were corrected for spontaneous breakdown of ATP observed in a control experiment in the absence of protein. The trypanosomal and human Hsp70s were used at 0.8 μM, and the J-proteins were used at 0.4 μM. An initial screen of the modulatory effects of the compounds on the ATPase activity of the Hsp70s was conducted using 300 μM of the compounds. […]

TbHsp70.4 / Tbj2 = assay: Tbj2-stimulated ATPase activity assay, TbHsp70.4; format: biochemical, Trypanosoma brucei; settings: TbHsp70.4, 150 μM, Figure 5B
Experimental: (§3) The determination of the ATPase activity of the Hsp70 proteins was performed using the high throughput colorimetric ATPase assay kit (Innova Biosciences, Cambridge, UK). This method enables the quantification of the inorganic phosphate (Pi) released from ATP hydrolysis by an enzyme. Briefly, the molecular chaperones were prepared in ATPase assay buffer (100 mM Tris-HCl, 7.5, 2 mM MgCl2, 50 mM KCl, 0.5 mM DTT) and incubated with ATP (0–2 mM) for 1 h at 37 °C. […] The samples containing Pi hydrolysed from ATP were incubated with the PiColorLock™ solution, which is a malachite green dye solution that in the presence of Pi changes absorbance due to generation of molybdate-phosphate complexes. The absorbance was measured at 595 nm using a Powerwave 96-well plate reader (BioTek Instruments, Inc., Winooski, VT, USA), and absorbance values were converted to phosphate concentrations using a standard curve of absorbance vs. phosphate concentration based on a set of Pi standards provided by the supplier assayed along with the samples. All samples were corrected for spontaneous breakdown of ATP observed in a control experiment in the absence of protein. The trypanosomal and human Hsp70s were used at 0.8 μM, and the J-proteins were used at 0.4 μM. An initial screen of the modulatory effects of the compounds on the ATPase activity of the Hsp70s was conducted using 300 μM of the compounds. Compounds identified to have a modulatory effect on the basal and J-protein-stimulated ATPase activity of Hsp70 were used at varying concentrations. The modulatory effect of the selected compounds on the basal and J-protein stimulated ATPase activity of the T. brucei Hsp70s was represented as fold change with the basal and J-protein stimulated ATPase activity of the Hsp70s taken as 1 respectively. These experiments were conducted on three independently purified batches of proteins, but due to limited availability of the selected compounds, each assay was conducted in duplicate on each batch of protein. In control reactions to evaluate the effect of DMSO on basal and J-protein stimulated ATPase activity of the Hsp70s, the solvent was added to a final concentration of 1% (v/v) in the assay. The assays were performed in duplicate on three independently purified batches of proteins.

[2] = tested on: bloodstream form T. b. brucei parasites; assay: Resazurin-based anti-trypanosomal assay on bloodstream form T. b. brucei parasites; format: cell-based, Trypanosoma brucei brucei; settings: Trypanosoma brucei
Experimental: Bloodstream form T. b. brucei Lister 927 variant 221 strain parasites were cultured in filter sterilized complete Iscoves Modified Dulbeccos Media (IMDM) based HM1-9 medium (IMDM base powder, […] sodium bicarbonate, 1 mM hypoxanthine, 1 mM sodium pyruvate, 0.16 mM thymidine, 0.05 mM bathocuprone sulphate acid, 10% (v/v) heat inactivated foetal bovine serum, 1.5 mM L-cysteine, 0.2 mM β-mercaptoethanol, pH 7.5) in a humidified chamber at 37 °C with an atmosphere of 5% CO2. Parasite growth was monitored using a Neubauer haemocytometer to count the cell number, after which cells were diluted, according to their density, in the described pre-warmed media.
All compounds of interest were resuspended to stocks of 30 mM in DMSO and stored at −80 °C prior to use in in vitro experiments. For assessment of anti-trypanosomal activity, compounds were added to in vitro cultures of bloodstream form T. b. brucei parasites (1 × 10^5 cells/mL) in 96-well plates at a fixed concentration of 20 μM. After an incubation period of 48 h, the number of parasites surviving drug exposure were determined using a resazurin-based cytotoxicity assay. Resazurin is an oxidation–reduction sensitive dye that is reduced by living cells to resorufin. Resorufin is a fluorophore (Excitation560/Emission590) and thus was quantified in a multi-well fluorescence plate reader. Results are expressed as % parasite viability—the resorufin fluorescence in small molecule-treated wells relative to untreated controls. Assessment of each small molecule was conducted in duplicate, with error bars representing standard deviation (SD). […] The compounds were added to in vitro cultures of bloodstream form T. b. brucei parasites (1 × 10^5 cells/mL) in 96-well plates in a 3-fold dilution series with 100 μM as the highest concentration. After an incubation period of 48 h, the number of parasites surviving drug exposure were determined as previously mentioned. The % parasite viability was determined as previously mentioned. The IC50 (the concentration of compound required to decrease cell viability of T. b. brucei parasites by 50% compared to those grown in the absence of the compound) values for each of the compounds were determined from a dose–response curve by non-linear regression generated using GraphPad Prism® (v. 7.0; San Diego, CA, USA) software. For comparative purposes, pentamidine at a fixed concentration of 1 μM was employed as a drug standard.

TbHsp70.4 = assay: Basal ATPase activity assay, TbHsp70.4; format: biochemical, Trypanosoma brucei; settings: TbHsp70.4, 1 μM
Experimental: as §2

TbHsp70 / Tbj2 = target: T2, TbHsp70 / Tbj2 (Trypanosoma brucei brucei, UniProt P11145); assay: Tbj2-stimulated ATPase activity assay, TbHsp70; format: biochemical; settings: TbHsp70, 150 μM, Figure 5A
T2 construct: His-tag; made in house; host or cells: Escherichia coli (Tbj2: E. coli BL21 (DE3))
Experimental: as §3

phosphodiesterase-4D = target: phosphodiesterase-4D; set-up: method as in PMID 24473168; settings: read-out: IC50 against phosphodiesterase-4D; cited from earlier work
P. falciparum = tested on: P. falciparum; set-up: method as in PMID 21426241; settings: read-out: IC50 against P. falciparum; cited from earlier work
PfHsp70-1 = tested on: PfHsp70-1; set-up: method as in PMID 21426241; settings: cited from earlier work
[3] = tested on: HeLa (human cervix adenocarcinoma) cells; assay: Resazurin-based cytotoxicity assay on a mammalian cell line; settings: 20 μM, Figure S2
Experimental: as §1

human Hsp70 = tested on: human Hsp70; set-up: method as in PMID 24854538; settings: cited from earlier work
plasmodial Hsp70s = tested on: plasmodial Hsp70s; set-up: method as in PMID 24854538; settings: cited from earlier work
c-Met kinase = tested on: c-Met kinase; set-up: method as in PMID 23081922; settings: 10 μM; cited from earlier work
[4] = T. b. brucei parasites, stated as bound, read-out: IC50 values
[5] = Table 1, T. b. brucei parasites cultured in vitro, 48 h, dose-response, read-out: IC50/μM
[6] = Table S1, 48 select compounds, T. b. brucei, 48 h, read-out: IC50/

T1 sequence (P11145 whole entry): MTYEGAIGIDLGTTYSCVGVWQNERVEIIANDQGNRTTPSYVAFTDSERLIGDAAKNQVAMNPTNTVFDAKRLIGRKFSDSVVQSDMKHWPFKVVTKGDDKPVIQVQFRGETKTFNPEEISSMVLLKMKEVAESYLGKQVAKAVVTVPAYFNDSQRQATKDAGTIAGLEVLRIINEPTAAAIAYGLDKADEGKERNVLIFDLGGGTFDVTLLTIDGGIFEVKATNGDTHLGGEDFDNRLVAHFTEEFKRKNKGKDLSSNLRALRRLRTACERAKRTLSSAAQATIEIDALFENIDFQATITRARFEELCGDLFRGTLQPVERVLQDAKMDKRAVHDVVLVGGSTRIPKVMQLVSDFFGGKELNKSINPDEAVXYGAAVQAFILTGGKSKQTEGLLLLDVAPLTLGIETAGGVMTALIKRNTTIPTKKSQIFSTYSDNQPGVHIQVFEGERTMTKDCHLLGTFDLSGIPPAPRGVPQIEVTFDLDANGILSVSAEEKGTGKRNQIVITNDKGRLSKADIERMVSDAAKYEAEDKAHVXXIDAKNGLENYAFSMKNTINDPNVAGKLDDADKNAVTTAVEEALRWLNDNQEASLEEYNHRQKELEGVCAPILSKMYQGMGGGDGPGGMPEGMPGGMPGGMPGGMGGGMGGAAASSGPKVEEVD
T2 sequence (P11145 whole entry): as above

SMILES: CC[C@H]1CN2CCc3cc(OC)c(OC)cc3[C@@H]2C[C@@H]1C[C@H]1NCCc2cc(OC)c(OC)cc21 [Emetine, reference compound]
- viability at 24 h, 10 µM [1]: 6.03%

SMILES: CC(C)=CCC/C(C)=C/CCC(C)=CCn1cnc2c(cnn2CC=C(C)CC/C=C(\C)CCC=C(C)C)c1=O [Compound 47, 1,5-Bis((6E)-3,7,11-trimethyldodeca-2,6,10-trien-1-yl)-1,5-dihydro-4H-pyrazolo[3,4-d]pyrimidin-4-one]
- inhibition at 1 µM (TbHsp70; TbHsp70, 1 μM): 44%
- effect of order of addition (compound vs Tbj2) on inhibition of J-stimulated ATPase activity (TbHsp70.4 / Tbj2): no significant difference
- IC50 [2, 4]: < 7 µM
- IC50 [2, 5]: 1.2 µM
- IC50 [2, 6]: 1.23 µM
- inhibition of basal ATPase activity (TbHsp70.4): 66%
- effect of order of addition (compound vs Tbj2) on inhibition of J-stimulated ATPase activity (TbHsp70 / Tbj2): no significant difference

SMILES: CNC(=O)c1c(N(C)C=O)ncn1C/C=C(\C)CC/C=C(\C)CCC/C(C)=C\C(=O)C=C(C)C [malonganenone Q]
- IC50 (phosphodiesterase-4D): 20.3 µM

SMILES: C/C(=C/C(=O)CC(C)C)CCC/C(C)=C/CC/C(C)=C/CNC=O [malonganenone C]
- IC50 (P. falciparum): 5.2 µM

SMILES: CNC(=O)c1c(N(C)C=O)ncn1C/C=C(\C)CC/C=C(\C)CCC/C(C)=C\C(=O)CC(C)C [malonganenone B]
- activity against PfHsp70-1 (PfHsp70-1): dose-dependent

SMILES: CC(C)=CCC/C(C)=C/Cn1ccc(=N)n(C/C=C(\C)CCC=C(C)C)c1=O [Compound 61, 1,3-bis((E)-3,7-dimethylocta-2,6-dien-1-yl)-4-imino-3,4-dihydropyrimidin-2(1H)-one]
- toxicity to HeLa cells [3]: toxic

SMILES: CC(C)=CCC/C(C)=C/Cn1cnc(=N)c2ncn(C/C=C(\C)CCC=C(C)C)c21 [Compound 5, 3,9-bis((E)-3,7-dimethylocta-2,6-dien-1-yl)-3,9-dihydro-6H-purin-6-imine]
- toxicity to HeLa cells [3]: toxic

SMILES: C/C(=C/C(=O)CC(C)C)CCC/C(C)=C/CC/C(C)=C/Cn1cnc2c1c(=O)ncn2C [malonganenone A]
- effect on steady-state and J-protein stimulated ATPase activity (human Hsp70): not that of human Hsp70
- effect on steady-state and J-protein stimulated ATPase activity (plasmodial Hsp70s): inhibited
- IC50 (P. falciparum): 0.81 µM

SMILES: CC(C)=CCC/C(C)=C/Cn1ccc(=NC=O)n(C/C=C(\C)CCC=C(C)C)c1=O [Compound 60, N-(-1,3-Bis((E)-3,7-dimethylocta-2,6-dien-1-yl)-2-oxo-2,3-dihydropyrimidin-4(1H)-ylidene)formamide]
- inhibition at 300 µM (TbHsp70; TbHsp70, 300 μM, Figure S6): 39%
- IC50 [2, 4]: < 7 µM
- IC50 [2, 5]: 4.9 µM
- IC50 [2, 6]: 4.89 µM

SMILES: C/C(=C\CC/C(C)=C/Cn1cnc2c1c(=O)ncn2C)CC/C=C(\C)CC(=O)CC(C)C [malonganenone D]
- reduction of c-Met kinase activity (c-Met kinase): 2 fold

SMILES: CC(C)=CCC/C(C)=C/CCC(C)=CCn1ccc(=NC=O)n(CC=C(C)CC/C=C(\C)CCC=C(C)C)c1=O [Compound 62, N-(-2-Oxo-1,3-bis((6E)-3,7,11-trimethyldodeca-2,6,10-trien-1-yl)-2,3-dihydropyrimidin-4(1H)-ylidene)formamide]
- toxicity to HeLa cells [3]: toxic

SMILES: CC(C)=CC(=O)C/C(C)=C/CC/C(C)=C/CC/C(C)=C/Cn1cnc2c1c(=O)ncn2C [malonganenone L]
- IC50 (phosphodiesterase-4D): 8.5 µM
